Assay results published in PMC9024521, “4-Heteroaryl Substituted Amino-3,5-Dicyanopyridines as New Adenosine Receptor Ligands: Novel Insights on Structure-Activity Relationships and Perspectives” (Pharmaceuticals, 2022).

Assays:
[1] = biological target: T1, hA2B AR (Homo sapiens, UniProt P29275); parameters: method as in PMID 15239649; settings: in comparison with NECA; ref [2]; cited from earlier work
T1 construct: host or cells: CHO cells
T1 sequence (P29275 1-332): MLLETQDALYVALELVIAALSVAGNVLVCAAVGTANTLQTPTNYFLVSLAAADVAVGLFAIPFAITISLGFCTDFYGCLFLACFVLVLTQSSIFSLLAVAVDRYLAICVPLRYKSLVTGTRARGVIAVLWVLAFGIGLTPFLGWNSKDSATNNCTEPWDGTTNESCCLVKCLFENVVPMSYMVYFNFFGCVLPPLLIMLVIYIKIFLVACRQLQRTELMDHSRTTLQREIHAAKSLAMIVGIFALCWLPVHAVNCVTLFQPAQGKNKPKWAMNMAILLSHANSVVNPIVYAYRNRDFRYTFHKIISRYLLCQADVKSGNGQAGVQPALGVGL

[2] = biological target: T2, hA1AR (Homo sapiens, UniProt P30542); test: Competition binding, [3H]DPCPX, hA1 CHO cell membranes; settings: displacement of [3H]DPCPX, hA1 CHO cells; mean ± SEM of four assays
T2 construct: host or cells: CHO cells
T2 sequence (P30542 1-326): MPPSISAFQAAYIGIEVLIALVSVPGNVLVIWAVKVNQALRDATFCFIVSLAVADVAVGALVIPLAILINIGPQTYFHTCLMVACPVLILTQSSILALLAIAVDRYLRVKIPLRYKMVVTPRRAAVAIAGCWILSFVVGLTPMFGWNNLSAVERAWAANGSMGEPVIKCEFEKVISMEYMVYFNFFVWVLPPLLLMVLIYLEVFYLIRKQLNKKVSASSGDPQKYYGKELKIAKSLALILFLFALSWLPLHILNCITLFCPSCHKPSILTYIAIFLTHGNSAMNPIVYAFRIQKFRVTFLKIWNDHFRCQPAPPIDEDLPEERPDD
Description: (§1) CHO cells transfected with hA1, hA2A, hA2B and hA3 ARs (Perkin Elmer, Boston, MA, USA) were grown adherently and maintained in Dulbecco’s modified Eagle’s medium with nutrient mixture F12, containing 10% fetal calf serum, penicillin (100 U/mL), streptomycin (100 μg/mL), L-glutamine (2 mM) and geneticine (G418; 0.2 mg/mL), at 37 °C, in 5% CO2/95% air, until their use in cAMP assays. For membrane preparation, the culture medium was removed, and the cells were washed with phosphate-buffered saline and scraped off T75 flasks in ice-cold hypotonic buffer (5 mM Tris HCl, 1 mM EDTA, pH 7.4). The cell suspension was homogenized with a Polytron, centrifuged for 30 min at 40,000× g, at 4 °C, and the resulting membrane pellet was used for competition binding experiments.
(§2) All synthesized compounds were tested for their affinity to hA1, hA2A and hA3 ARs. Competition experiments to hA1AR were carried out by incubating 1 nM [^3H]-8-cyclopentyl-1,3-dipropylxanthine ([^3H]-DPCPX) with membrane suspension (50 μg of protein/100 μL) and different concentrations of the examined compounds at 25 °C for 90 min in 50 mM Tris HCl, pH 7.4. Non-specific binding was defined as binding in the presence of 1 μM DPCPX and was always <10% of the total binding. Inhibition experiments to hA2A ARs were performed by incubating the radioligand [^3H]-4-(-2-[7-amino-2-{2-furyl}{1,2,4}triazolo{2,3-a} {1,3,5}triazin-5-yl-amino]ethyl)phenol ([^3H]-ZM241385) (1 nM) with the membrane suspension (50 μg of protein/100 μL) and different concentrations of the examined compounds for 60 min, at 4 °C, in 50 mM Tris HCl (pH 7.4), 10 mM MgCl2. Non-specific binding was determined in the presence of ZM241385 (1 μM) and was about 20% of the total binding. Competition binding experiments to A3ARs were carried out by incubating the membrane suspension (50 μg of protein/100 μL) with 0.5 nM [^125I]-N6-(4-aminobenzyl)-N-methylcarboxamidoadenosine ([^125I]-ABMECA) in the presence of different concentrations of the examined compounds for an incubation time of 120 min, at 4 °C, in 50 mM Tris HCl (pH 7.4), 10 mM MgCl2, 1 mM EDTA. Non-specific binding was defined as binding in the presence of 1 μM ABMECA and was always <10% of the total binding. Bound and free radioactivity were separated by filtering the assay mixture through Whatman GF/B glass-fiber filters, using a Brandel cell harvester (Brandel Instruments, Unterföhring, Germany). The filter bound radioactivity was counted by Packard Tri Carb 2810 TR scintillation counter (Perkin Elmer).
(§3) The protein concentration was determined according to a Bio-Rad method, with bovine albumin as a standard reference. Inhibitory binding constant (Ki) values were calculated from those of IC50 according to the Cheng–Prusoff equation, Ki = IC50/(1 + [C*]/KD*), where [C*] is the concentration of the radioligand, and KD* its dissociation constant. Ki and IC50 values were calculated by non-linear regression analysis, using the equation for a sigmoid concentration-response curve (Graph-PAD Prism, San Diego, CA, USA).

[3] = biological target: T3, hA2AAR (Homo sapiens, UniProt P29274); test: Competition binding, [3H]ZM241385, hA2A CHO cell membranes; settings: displacement of [3H]ZM241385, hA2A CHO cells; mean ± SEM of four assays
T3 construct: host or cells: CHO cells
Description: as §1, §2, §3

[4] = biological target: T4, hA3AR (Homo sapiens, UniProt P0DMS8); test: Competition binding, [125I]AB-MECA, hA3 CHO cell membranes; settings: for Ki: displacement of [125I]AB-MECA, hA3 CHO cells, mean ± SEM of four assays; for inhibition at 1 µM: 1 µM compound, [125I]AB-MECA binding, read-out: I% hA3 (percentage of inhibition)
T4 construct: host or cells: CHO cells
T4 sequence (P0DMS8 1-318): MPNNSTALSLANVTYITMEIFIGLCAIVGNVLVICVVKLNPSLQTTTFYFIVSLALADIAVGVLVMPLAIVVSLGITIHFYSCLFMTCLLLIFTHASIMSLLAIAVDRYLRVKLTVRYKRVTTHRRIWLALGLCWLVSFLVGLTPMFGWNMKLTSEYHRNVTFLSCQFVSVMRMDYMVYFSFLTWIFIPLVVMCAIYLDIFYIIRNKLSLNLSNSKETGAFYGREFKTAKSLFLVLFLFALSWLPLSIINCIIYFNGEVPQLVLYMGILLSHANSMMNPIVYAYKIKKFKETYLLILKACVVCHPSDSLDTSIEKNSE
Description: as §1, §2, §3

[5] = biological target: T1, hA2B AR; test: cAMP assay in CHO cells expressing hA2B AR (stimulation of cAMP production); format: cell-based; settings: for Emax at 1 µM: CHO, 1 µM compound, in comparison with NECA (1 µM = 100%), read-out: Efficacy hA2B (cAMP assay) (converted); for EC50: hA2B CHO cells, mean ± SEM of four assays
Description: (§4) The amino-3,5-dicyanopyridines 1–21 were tested for their affinity at hA1, hA2A and hA3 ARs, stably transfected in Chinese Hamster Ovary (CHO) cells. Moreover, they were also studied as hA2B agonists by evaluating their stimulatory effect on cAMP production in CHO cells, stably expressing the hA2B AR. […] Due to their interesting pan profile, both compounds 1 and 5 were evaluated as AR agonists also at the hA2A and hA3 subtypes.
as §1
(§5) CHO cells transfected with hAR subtypes were washed with phosphate-buffered saline, detached with tripsine and centrifuged for 10 min at 200× g. Cells were seeded in a 96-well white half-area microplate (Perkin Elmer, Boston, USA) in a stimulation buffer composed of Hank Balanced Salt Solution, 5 mM HEPES, 0.5 mM Ro 20–1724, 0.1% BSA. The cAMP levels were then quantified by using the AlphaScreen cAMP Detection Kit (Perkin Elmer, Boston, MA, USA), following the manufacturer’s instructions. At the end of the experiments, the plates were read with a Perkin Elmer EnSight Multimode Plate Reader.

[6] = biological target: T2, hA1AR; test: Modulation of Forskolin-stimulated cAMP levels in hA1 CHO cells; format: cell-based; settings: for IC50: footnote d, vs CCPA 10 nM; for hA1AR Efficacy: normalized: CCPA full agonist = 100%, DPCPX inverse agonist = −100%; for hA1AR Profile: pharmacological profile in cAMP assay
Description: as §4, §1, §5

T3 sequence (P29274 whole entry): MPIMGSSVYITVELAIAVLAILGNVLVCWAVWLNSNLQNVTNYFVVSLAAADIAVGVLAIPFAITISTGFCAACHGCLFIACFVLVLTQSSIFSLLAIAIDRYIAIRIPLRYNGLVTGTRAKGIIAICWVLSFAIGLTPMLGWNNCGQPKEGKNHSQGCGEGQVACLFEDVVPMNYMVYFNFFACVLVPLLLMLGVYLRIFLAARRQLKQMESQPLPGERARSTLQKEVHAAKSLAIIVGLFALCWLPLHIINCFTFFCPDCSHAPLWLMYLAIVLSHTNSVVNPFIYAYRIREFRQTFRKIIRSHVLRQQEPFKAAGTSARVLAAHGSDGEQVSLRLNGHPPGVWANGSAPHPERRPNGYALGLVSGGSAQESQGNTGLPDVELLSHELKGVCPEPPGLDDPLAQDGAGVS

Row | SMILES | Efficacy hA2B (cAMP assay) [1] [%] | Ki [2] [nM] | Ki [3] [nM] | Ki [4] [nM] | Emax at 1 µM [5] [%] | EC50 [5] [nM] | IC50 [6] [nM] | hA1AR Efficacy [6] [%] | hA1AR Profile [6] | melting point [°C] | inhibition at 1 µM [4] [%] | EC50 ([6]; footnote c, mean ± SEM of four experiments, read-out: hA1AR EC50 or IC50, potency to modulate Forskolin-stimulated cAMP levels) [nM]
1 | N#Cc1c(N)nc(SCc2ncc[nH]2)c(C#N)c1-c1ccccc1 [LUF5833, 2-amino-6-[(1H-imidazol-2-ylmethyl)sulfanyl]-4-phenylpyridine-3,5-dicarbonitrile] | 81 | – | – | – | – | – | – | – | – | – | – | –
2 | Cl.N#Cc1c(N)nc(SCc2cnc[nH]2)c(C#N)c1-c1ccco1 [Compound 11, 2-Amino-4-(furan-2-yl)-6-[(1H-imidazol-5-ylmethyl)sulfanyl]pyridine-3,5-dicarbonitrile hydrochloride] | – | 51 ± 4 | 442 ± 37 | 849 ± 74 | 4 | > 1000 | 125 ± 11 | 0.82 ± 0.07 | Antagonist | 147 to 148 | – | –
3 | N#Cc1c(N)nc(NCc2ncc[nH]2)c(C#N)c1-c1ccco1 [Compound 12, 2-Amino-4-(furan-2-yl)-6-[(1H-imidazol-2-ylmethyl)amino]pyridine-3,5-dicarbonitrile] | – | 315 ± 28 | 157 ± 14 | – | 3 | > 1000 | 768 ± 67 | 1.31 ± 0.11 | Antagonist | 265 to 266 | 16 | –
4 | N#Cc1c(N)nc(SCC(=O)NCCc2cnc[nH]2)c(C#N)c1-c1ccco1 [Compound 16, 2-{[6-Amino-3,5-dicyano-4-(furan-2-yl)pyridin-2-yl]sulfanyl}-N-[2-(1H-imidazol-5-yl)ethyl]acetamide] | – | 30 ± 3 | 138 ± 11 | – | 1 | > 1000 | – | −43 ± 4 | Inverse Agonist | 223 to 226 | 30 | 59 ± 4
5 | N#Cc1c(N)nc(SCC(=O)NCc2cnc[nH]2)c(C#N)c1-c1ccco1 [Compound 15, 2-{[6-Amino-3,5-dicyano-4-(furan-2-yl)pyridin-2-yl]sulfanyl}-N-(1H-imidazol-5-ylmethyl)acetamide] | – | 378 ± 26 | 225 ± 18 | 758 ± 66 | 1 | > 1000 | – | – | – | 269 to 270 | – | –
6 | N#Cc1c(SCc2ncc[nH]2)nc(N2CCCC2)c(C#N)c1-c1ccco1 [Compound 20] | – | 41 ± 3 | 89 ± 7 | 118 ± 11 | 8 | > 1000 | – | – | – | 232 to 234 | – | –
7 | COc1ccc(-c2c(C#N)c(N)nc(SCc3ncc[nH]3)c2C#N)cn1 [Compound 9, 2′-Amino-6′-[(1H-imidazol-2-ylmethyl)sulfanyl]-6-methoxy-3,4′-bipyridine-3′,5′-dicarbonitrile] | – | 2.71 ± 0.18 | 377 ± 32 | 798 ± 72 | 7 | > 1000 | – | – | – | 232 to 233 | – | –
